# Where “and” joins values, the source holds several entries; their conditions need not be identical. Equal values may be shown once. Entries after “also recorded” stand apart in the source; their conditions may differ.
# Experiments:
# [1] = Cytotoxic evaluation on the Hela cell line (MTT assay); format: cell-based; conditions: human, Hela cells
# Experimental: The evaluation of the tested molecules’ cytotoxicity on the Hela cell line was conducted according to the method of Mosman with slight modifications. Briefly, cells (1 × 10^5 cells/mL) in 100 µL of complete medium, (MEM supplemented with 10% fetal bovine serum, 2 mM L-glutamine and antibiotics (100 U/mL penicillin and 100 µg/mL streptomycin) were seeded into each well of the 96-well plates and incubated at 37 °C and 5% CO2. After a 24 h incubation, 100 µL of medium with various product concentrations and appropriate controls were added and the plates were incubated for 72 h at 37 °C and 5% CO2. Each plate-well was then microscope-examined to detect possible precipitate formation before the medium was aspirated from the wells. MTT solution (100 µL, 0.5 mg/mL in RPMI) was then added to each well. Cells were incubated for 2 h at 37 °C and 5% CO2. After this time, the MTT solution was removed and DMSO (100 µL) was added to dissolve the resulting formazan crystals. Plates were shaken vigorously (300 rpm) for 5 min. The absorbance was measured at 570 nm with a microplate spectrophotometer (Eon BioTek). DMSO was used as blank and doxorubicin (purchased from Sigma Aldrich) as positive control. CC50 were calculated by non-linear regression analysis processed on dose response curves, using TableCurve 2D V5 software (San Jose, CA, USA). CC50 values represent the mean value calculated from three independent experiments.
# NQO2 = target: T1, NQO2 (Homo sapiens, UniProt P16083); test: EPR measurement of free radicals (ROS) produced after metabolism by NQO2; format: biochemical; conditions: for radical production after reduction by NQO2: EPR with DMPO spin trap; for radical production after adding the specific NQO2 inhibitor S29434: S29434 30 µM; for ROS after NQO2 Reduction: purified NQO2 20 µg/mL, compound 125 µM, BNAH 1 mM, DMPO 125 mM, grades - to + + + + +
# T1 construct: The experiments were conducted with purified enzyme NQO2 (20 µg/mL)
# T1 sequence (P16083 1-231): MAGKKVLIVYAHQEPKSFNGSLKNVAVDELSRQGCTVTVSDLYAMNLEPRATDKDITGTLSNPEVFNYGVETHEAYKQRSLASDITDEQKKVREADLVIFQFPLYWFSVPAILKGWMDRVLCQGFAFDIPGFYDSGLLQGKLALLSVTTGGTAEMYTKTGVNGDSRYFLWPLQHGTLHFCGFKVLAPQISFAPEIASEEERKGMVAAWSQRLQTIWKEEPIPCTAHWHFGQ
# Experimental: As in previous work, we used an indirect assay to characterize the substrates. […] Using the capacity of NQO2 to reduce quinones into hydroquinones or quinols, we incubated the substrate candidates with the enzyme and its co-substrate, a synthetic hydride donor, N-benzyldihydronicotinamide. […] Thus, using an EPR-based assay, it was possible to evaluate the potency of the process by quantifying those bursts by measuring for the presence of free radicals. The rationale of the process was based on the simple idea that such substrates would generate bursts of ROS, which are particularly toxic for infected red cells.
# We measured the ability of the selected compounds to produce superoxide radicals during the redox cycle of NQO2 by EPR spectroscopy. The following compounds were used as molecular tools: Menadione (Figure 1) as a reference compound and NQO2 substrate, S29434 as a specific NQO2 inhibitor [17] and dimethyl-pyrroline-N-oxide (DMPO) as a spin trap reagent to characterize ROS.
# The experiments were conducted with purified enzyme NQO2 (20 µg/mL), DMPO (125 mM), tested compounds (125 µM) and BNAH (1 mM). For inhibition assays, we added S29434 (30 µM). All analyses were performed at room temperature. EPR spectra were recorded with a Bruker EMX-8/2.7 (9.86 GHz) with a high-sensitivity cavity (4119/HS 0205) and a gaussmeter (Bruker, Wissembourg, France), at X-band. For analyses, we used a flat quartz cell, FZKI160-5 × 0.3 mm (Magnettech, Berlin, Germany). We performed data processing and spectrum acquisition with WINEPR software (Bruker). Scanning parameters were: Number of scans, 5; magnetic field, 3460–3560 G; sweep width, 100 G; scan rate, 1.2 G/s; modulation amplitude, 1 G; sweep time, 83.88 s; time constant, 40.96 ms; modulation frequency, 100 kHz; and microwave power, 20 mW. The EPR spectra were analyzed as reported previously. The EPR spectrum was presented with the magnetic field on the x-axis in gauss (g) and the intensity of the peaks on the y-axis in arbitrary units (a.u.).
# [2] = test system: P. falciparum strain FcB1; test: In vitro antiplasmodial activity, SYBR Green I-based fluorescence assay; format: cell-based, Plasmodium falciparum; conditions: for IC50: Plasmodium falciparum, FCB1, 48 h, P. falciparum FcB1 (chloroquine-resistant strain), 48 h, read-out: IC50
# Experimental: The in vitro anti-malarial activity was investigated using the SYBR Green I-based fluorescence assay. The asexual intra-erythrocytic stage of P. falciparum laboratory strain FcB1 (chloroquine-resistant strain) was maintained in RPMI 1640 medium containing l-glutamine 200 µM, Hepes 25 mM and 5% human serum (Etablissement Français du Sang—EFS, Toulouse, France). For anti-malarial drug assays, stock solutions of compounds were diluted serially in RPMI 1640 culture medium to test final concentrations between 0.001 and 1 µg/mL in triplicates in a 96-well plate. The final concentration of DMSO was 0.5%. A suspension of sorbitol-synchronized, infected red blood cells (iRBCs) was adjusted to 1% parasitemia and 2% hematocrit in complete medium and added to the wells. Negative controls were prepared with a suspension of iRBCs and 0.5% DMSO. Chloroquine was used as the positive control. Test plates were incubated at 37 °C for 48 h. Afterwards, 100 μL SYBR Green I fluorescent lysis buffer were added to each well and incubated in a dark place at room temperature for 2 h. Fluorescence data were acquired using a fluorescence plate reader (BMG Fluostar Galaxy Labtech) with excitation and emission wavelengths at 485 nm and 518 nm, respectively. The fluorescence values (after subtraction of the background fluorescence of the non-parasitized RBCs) were plotted against the log of the drug concentration, and analyzed by non-linear regression (sigmoidal dose response/variable slope equation) to yield the IC50 (50% inhibitory concentration) that served as a measure of the anti-malarial activity.
# P. chabaudi chabaudi = test: Four-days suppressive test, P. chabaudi chabaudi mice model (uncomplicated malaria); format: in vivo, Plasmodium chabaudi chabaudi in Swiss mice; conditions: for % inhibition of parasite density at D8: 50 mg/kg intraperitoneal D0 to D3, D8; for Pcc parasite density compared to DMSO treatment: 50 mg/kg intraperitoneal D0 to D3, D8 (peak of parasitemia), p < 0.0001; for weight development at D11 after Pcc infection: 50 mg/kg intraperitoneal D0 to D3, D11; for death after Pcc infection: 50 mg/kg intraperitoneal D0 to D3, monitored 13 days
# Experimental: As previously described, the four-days suppressive standard test described by Knight and Peters was used to evaluate antimalarial activity of Compounds 1 and 3. P. chabaudi chabaudi (Pcc) and P. berghei ANKA (PbA) infections in Swiss mice were used as experimental models for uncomplicated and cerebral malaria, respectively. […] On the first day (D0), mice were inoculated intraperitoneally with 0.2 mL of infected blood containing about 1 × 10^6 parasitized erythrocytes. […] All mice groups were treated similarly for four consecutive days (D0–D3). Weight, parasitemia and survival were followed daily. To follow peripheral parasite density, thin blood smears were made daily from tail blood from D3 to D14. Blood smears were fixed with methanol and stained with a fast-acting variation of the May–Grünwald Giemsa staining (RAL 555 kit, RAL diagnostics). Average percentage chemosuppression was calculated at D8 for both infection models as ((A − B)/A) × 100 where A is the average percentage parasitemia in the negative control group and B is the average percentage parasitemia in the test group. Survival was monitored twice daily. […]
# P. berghei ANKA = test: Four-days suppressive test, P. berghei ANKA mice model (cerebral malaria); format: in vivo, Plasmodium berghei ANKA in Swiss mice; conditions: for survival rate on D10: 50 mg/kg intraperitoneal D0 to D3, D10
# Experimental: As previously described, the four-days suppressive standard test described by Knight and Peters was used to evaluate antimalarial activity of Compounds 1 and 3. P. chabaudi chabaudi (Pcc) and P. berghei ANKA (PbA) infections in Swiss mice were used as experimental models for uncomplicated and cerebral malaria, respectively. […] On the first day (D0), mice were inoculated intraperitoneally with 0.2 mL of infected blood containing about 1 × 10^6 parasitized erythrocytes. […] All mice groups were treated similarly for four consecutive days (D0–D3). Weight, parasitemia and survival were followed daily. To follow peripheral parasite density, thin blood smears were made daily from tail blood from D3 to D14. Blood smears were fixed with methanol and stained with a fast-acting variation of the May–Grünwald Giemsa staining (RAL 555 kit, RAL diagnostics). Average percentage chemosuppression was calculated at D8 for both infection models as ((A − B)/A) × 100 where A is the average percentage parasitemia in the negative control group and B is the average percentage parasitemia in the test group. Survival was monitored twice daily. The percentage survival was determined over a period of 21 days (D0–D20) and compared between groups.
# [3] = Acute toxicity in healthy Swiss mice; format: in vivo; conditions: for weight variation compared to the vehicle control group: healthy Swiss mice, 50 mg/kg intraperitoneal, Days 7, 14 and 20; for mortality or major behavioral changes: mouse, in vivo, ip, 50 mg/kg
# Experimental: Compounds 1 and 3 were diluted in 50% DMSO and tested at 50 mg/kg. Protocols used for acute oral toxicity measurement were previously described. Briefly, mice were randomly divided into three groups of three mice and treated once a day from D0 to D3 by the intraperitoneal route with 200 µL of Compound 1 or Compound 3 at 50 mg/kg, or DMSO 50%.
# [4] = 50 mg/kg intraperitoneal D0 to D3
SMILES,CC50 at 72 h [1],radical production after reduction by NQO2 (NQO2),radical production after adding the specific NQO2 inhibitor S29434 (NQO2; EPR),"ROS after NQO2 Reduction (NQO2; EPR, key not given)",CC50 values fold higher than the IC50 value [2],TI (Therapeutic Index = CC50/IC50) [2],IC50 [2],"ROS after Inhibition of NQO2 with S29434 (NQO2; EPR, as above plus S29434 30 µM, grades - to + +, key not given)",% inhibition of parasite density at D8 (P. chabaudi chabaudi),Pcc parasite density compared to DMSO treatment (P. chabaudi chabaudi),weight development at D11 after Pcc infection (P. chabaudi chabaudi),death after Pcc infection (P. chabaudi chabaudi),effect on weight loss and parasitemia during PbA infection (P. berghei ANKA; [4]),superiority over DMSO (survival) (P. berghei ANKA; [4]),survival rate on D10 (P. berghei ANKA),weight variation compared to the vehicle control group [3],mortality or major behavioral changes [3],"efficacy on parasite density compared to the CQ treatment (P. chabaudi chabaudi; 50 mg/kg intraperitoneal vs CQ, D8)"
"COc1cccc2c1C(=O)c1c(O)c3c(c(O)c1C2=O)C[C@@](O)(C(=O)CO)C[C@@H]3O[C@H]1C[C@H](N)[C@H](O)[C@H](C)O1 [Doxorubicin, doxorubicin, reference compound]",0.311 ± 0.478 µM,,,,,,,,,,,,,,,,,
COc1ccc2c(c1)C(=O)C1=C(C2=O)C(C)(C)C(C)O1 (centres unmarked) [Compound 4],11.8 ± 2.2 µM,produced radicals,decreased,+ + +,8-9 fold,8.53,1.38 ± 0.627 µM,,,,,,,,,,,
COc1ccc2c(c1)C(=O)C1=C(OC(C)(C)CC1)C2=O [Compound 6],> 18.4 µM,produced radicals,,+ + +,,>0.94,19.5 ± 7.09 µM,+ +,,,,,,,,,,
COc1cccc2c1C1=C(C(=O)C2=O)C(C)(C)C(C)O1 (centres unmarked) [Compound 1],2.42 ± 0.905 µM,produced radicals; also recorded: induced a production of ROS,decreased,+ +,,3.83,0.633 ± 0.74 µM,,74.8% and 90.6%,highly reduced,lost more weight than other groups,did not cause any death,did not limit either weight loss or parasitemia,statistically significant until D15,80%,similar,did not cause mortality or major behavioral changes,
COc1ccc2c(c1)C(=O)C(=O)C1=C2OC(C)C1(C)C (centres unmarked) [Compound 3],1.43 ± 0.314 µM,produced radicals; also recorded: induced a production of ROS,decreased,+ + +,,1.70,0.845 ± 0.334 µM,,90.6% and 74.8%,highly reduced,lost more weight than other groups,did not cause any death,did not limit either weight loss or parasitemia,,100%,similar,did not cause mortality or major behavioral changes,less effective

# — article PMC6832513, “Antimalarial Properties of Dunnione Derivatives as NQO2 Substrates” (Molecules, 2019)
